From US10683311B2 (priority 2015, dated 2020)

Experiment: log P by HPLC on reversed-phase column (C18), EEC Directive 79/831 Annex V.A8
Type: physicochemical
Details: Method A: 40° C., 0.1% aqueous formic acid and acetonitrile
Method: In table 1, the log P values were determined in accordance with EEC Directive 79/831 Annex V.A8 by HPLC (High Performance Liquid Chromatography) on a reversed-phase column (C18), using the methods described below:
Method A: temperature: 40° C.; mobile phases: 0.1% aqueous formic acid and acetonitrile; linear gradient from 10% acetonitrile to 95% acetonitrile;
Method B: temperature: 40° C.; mobile phases: 0.001 molar ammonium acetate solution in water and acetonitrile; linear gradient from 10% acetonitrile to 95% acetonitrile.
Calibration was carried out using unbranched alkan-2-ones (comprising 3 to 16 carbon atoms) with known log P values (determination of the log P values by the retention times using linear interpolation between two successive alkanones). lambda-max-values were determined using UV-spectra from 200 nm to 400 nm and the peak values of the chromatographic signals.
Work on `C[Si](C)(C)c1ccccc1Oc1cnc2ccccc2n1` [I.068] yielded a logP of 5.05.
For `C[Si](C)(C)c1ccccc1Nc1cnc2ccccc2c1` [I.011], the logP was 3.46.
With `C[Si](C)(c1ccccc1Oc1cnc2c(F)c(F)ccc2n1)C1CCCCC1` [I.080] the logP was 6.94.
Work on `Cc1nc2c(F)c(F)ccc2nc1Oc1cc(C#N)ccc1[Si](C)(C)O` [I.093] yielded a logP of 3.39.
Work on `C[Si](C)(C)c1c(F)cccc1[S+]([O-])c1cnc2ccccc2c1` (stereo not drawn) [I.132] yielded a logP of 3.63.
In the case of `Cc1nc2c(F)c(F)ccc2nc1Oc1ccccc1[Si](C)(C)O` [I.087], the logP was 3.35.
With `Cc1nc2c(F)c(F)ccc2nc1Oc1cc(F)ccc1[Si](C)(C)C` [I.108] the logP was 5.57.
`Cc1nc2ccccc2nc1Oc1cccc(F)c1[Si](C)(C)C` [I.111] gave a logP of 5.45.
With `C[Si](C)(C)c1c(F)cccc1Oc1cnc2c(F)c(F)ccc2n1` [I.078] the logP was 5.20.
With `Cc1nc2ccccc2cc1Oc1cccc(F)c1[Si](C)(C)O` [I.049] the logP was 2.41.
Work on `Cc1nc2ccccc2nc1Oc1ccccc1[Si](C)(C)O` [I.112] yielded a logP of 3.01.
`C[Si](C)(O)c1c(F)cccc1Oc1cnc2c(F)c(F)ccc2c1` [I.022] gave a logP of 2.35.
In the case of `C[Si](C)(O)c1c(F)cccc1Oc1cnc2ccnn2c1` [I.121], the logP was 2.07.
With `Cc1nc2c(F)c(F)ccc2nc1Oc1c(F)cccc1[Si](C)(C)O` [I.089] the logP was 3.62.
Molecule `C[Si](C)(C)c1c(F)cccc1Nc1cc2ccccc2nc1C(F)F` [I.066] has a logP of 5.68.
Molecule `Cc1nc2c(F)c(F)ccc2nc1Oc1cccc(F)c1[Si](C)(C)C` [I.088] has a logP of 5.65.
Molecule `C[Si](C)(O)c1ccccc1Oc1cnc2c(F)c(F)ccc2c1` [I.023] has a logP of 3.27.
For `C[Si](C)(C)c1ccccc1Oc1cnc2c(F)cnn2c1` [I.129], the logP was 4.56.
`CC[Si](C)(C)c1ccccc1Oc1cnc2c(F)c(F)ccc2n1` [I.077] gave a logP of 5.62.
Molecule `C[Si](C)(C)c1c(F)cccc1Oc1cnc2sccc2c1` [I.120] has a logP of 5.45.
`Cc1nc2c(F)c(F)ccc2cc1Oc1ccc(F)cc1[Si](C)(C)O` [I.037] showed a logP of 3.55.
For `Cc1nc2ccccc2cc1Oc1cccc(OC(F)(F)F)c1[Si](C)(C)O` [I.050], the logP was 3.35.
`Cc1nc2c(F)c(F)ccc2nc1Oc1c(Cl)cccc1[Si](C)(C)O` [I.103] showed a logP of 3.96.
`Cc1ccc(Oc2nc3ccc(F)c(F)c3nc2C)c([Si](C)(C)O)c1` [I.099] showed a logP of 3.85.
For `C[Si](C)(O)c1c(F)cccc1Oc1cnc2ccccc2n1` [I.071], the logP was 3.01.
Work on `C[Si](C)(C)c1c(F)cccc1Oc1cnc2ccsc2c1` [I.118] yielded a logP of 5.22.
Work on `C[Si](C)(c1cccs1)c1ccccc1Cc1cnc2ccccc2c1` [I.015] yielded a logP of 4.04.
With `C[Si](C)(O)c1ccccc1Oc1cnc2ccccc2c1` [I.002] the logP was 2.82.
`C[Si](C)(C)c1c(F)cccc1Oc1cc2ccccc2nc1-c1ccccc1` [I.045] gave a logP of 6.40.
`Cc1nc2c(F)c(F)ccc2nc1Oc1ccc(Cl)cc1[Si](C)(C)C` [I.101] showed a logP of 6.11.
Molecule `Cc1nc2ccccc2cc1Cc1ccccc1[Si](C)(C)C` [I.139] has a logP of 2.76.
For `C[Si](C)(O)c1ccccc1Oc1cnc2c(F)cnn2c1` [I.126], the logP was 2.50.
In the case of `CC(C)C[Si](C)(C)c1ccccc1Oc1cnc2ccccc2n1` [I.073], the logP was 6.33.
Work on `COc1cccc(Oc2cc3ccc(F)c(F)c3nc2C)c1[Si](C)(C)C` [I.038] yielded a logP of 5.85.
With `Cc1nc2ccccc2cc1Oc1ccccc1[Si](C)(C)O` [I.048] the logP was 2.16.
Work on `C=Cc1nc2ccccc2cc1Oc1cccc(F)c1[Si](C)(C)C` [I.044] yielded a logP of 6.30.
For `Cc1nc2c(F)c(F)ccc2nc1Oc1cccc(F)c1[Si](C)(C)O` [I.085], the logP was 3.67.
With `Cc1nc2c(F)c(F)ccc2cc1Oc1cccc(Cl)c1[Si](C)(C)O` [I.034] the logP was 3.83.
`C[Si](C)(c1ccc(Cc2ccccc2)cc1)c1ccccc1Cc1cnc2ccccc2c1` [I.143] gave a logP of 5.78.
In the case of `C[Si](C)(C)c1c(F)cccc1Oc1cc2ccccc2nc1Cl` [I.063], the logP was 5.90.
Work on `CC[Si](C)(C)c1c(F)cccc1Oc1cc2ccccc2[n+]([O-])c1C` [I.057] yielded a logP of 4.54.
With `Cc1cccc([Si](C)(C)C)c1Oc1nc2ccc(F)c(F)c2nc1C` [I.107] the logP was 5.88.
Work on `Cc1nc2c(F)c(F)ccc2cc1Oc1cccc(OC(F)(F)F)c1[Si](C)(C)O` [I.036] yielded a logP of 4.20.
`C[Si](C)(O)c1ccccc1Oc1cnc2ccccc2n1` [I.070] gave a logP of 2.86.
Molecule `Cc1nc2c(F)c(F)ccc2cc1Oc1cc(N)ccc1[Si](C)(C)C` [I.029] has a logP of 4.59.
Molecule `C=C[Si](C)(C)c1c(F)cccc1Oc1cnc2ccccc2c1` [I.006] has a logP of 5.24.
For `Cc1nc2c(F)c(F)ccc2nc1Oc1cc(F)ccc1[Si](C)(C)O` [I.105], the logP was 3.58.
`Cc1nc2ccccc2nc1Oc1cccc(F)c1[Si](C)(C)c1cccs1` [I.113] gave a logP of 5.51.

Same assay, conditions: Method B: 40° C., 0.001 molar ammonium acetate solution in water and acetonitrile
With `C[Si](C)(O)c1ccccc1Nc1cnc2ccccc2c1` [I.009] the logP was 3.20.

Same assay, conditions: logP Method A
Work on `Nc1c(F)cccc1Oc1cnc2c(F)c(F)ccc2c1` [IVa.04] yielded a logP of 3.02.
Work on `Cc1cccc(Br)c1Oc1nc2ccc(F)c(F)c2nc1C` [IIb.03] yielded a logP of 4.80.
`CC1(C)OB(Cc2ccccc2[Si](C)(C)C)OC1(C)C` [XIIa.01] showed a logP of 5.68.
For `N#Cc1ccc(F)c(Br)c1Oc1cnc2c(F)c(F)ccc2n1` [IIb.21], the logP was 3.72.
For `Cc1nc2c(F)c(F)ccc2nc1Oc1cc(C#N)ccc1Br` [IIb.20], the logP was 4.03.
Molecule `Cc1nc2c(F)c(F)ccc2nc1Oc1c(Cl)cccc1Br` [IIb.05] has a logP of 4.87.
`Cc1nc2ccccc2cc1Oc1ccccc1N` [IVa.07] showed a logP of 1.66.
Work on `C[Si](C)(Cc1ccccc1)c1ccccc1O` [IXa.06] yielded a logP of 5.14.
In the case of `Fc1cccc(Oc2cnc3ccccc3n2)c1Br` [IIb.14], the logP was 3.78.
Work on `Cc1nc2ccccc2cc1Oc1cccc(F)c1[N+](=O)[O-]` [Va.06] yielded a logP of 3.15.
Work on `Cc1nc2ccccc2cc1Oc1ccccc1[N+](=O)[O-]` [Va.08] yielded a logP of 2.64.
For `Cc1nc2c(F)c(F)ccc2nc1Oc1cccc(C#N)c1Br` [IIb.22], the logP was 3.83.
For `Cc1nc2ccccc2cc1Oc1cccc(F)c1` [VIIa.04], the logP was 2.96.
`Cc1nc2c(F)c(F)ccc2cc1Oc1cccc(F)c1[N+](=O)[O-]` [Va.02] gave a logP of 3.64.
`Cc1nc2c(F)c(F)ccc2nc1Oc1c(F)cccc1Br` [IIb.04] showed a logP of 2.67.
`COc1cccc(Oc2nc3ccc(F)c(F)c3nc2C)c1Br` [IIb.13] gave a logP of 4.19.

Same assay, conditions: reversed-phase HPLC column (C18), Method A: 40° C., 0.1% aqueous formic acid and acetonitrile
In the case of `Fc1cccc(Oc2cc3ccccc3nc2C(F)F)c1Br` [IIa.19, 3-(2-bromo-3-fluorophenoxy)-2-(difluoromethyl)quinoline], the chromatographic logP was 3.99.
`Fc1cccc(Oc2cnc3ccccc3c2)c1I` [IIa.01, 3-(3-fluoro-2-iodophenoxy)quinoline] showed a chromatographic logP of 3.71.
In the case of `Cc1c(Oc2cccc(F)c2Br)cnc2ccccc12` [IIa.17, 3-(2-bromo-3-fluorophenoxy)-4-methylquinoline], the chromatographic logP was 3.89.
With `Fc1cccc(Oc2cnc3ccccc3c2)c1` [VIIa.05, 3-(3-fluorophenoxy)quinoline] the chromatographic logP was 3.21.
Work on `Fc1cccc(Oc2cnc3c(F)c(F)ccc3c2)c1Br` [IIa.15, 3-(2-bromo-3-fluorophenoxy)-7,8-difluoroquinoline] yielded a chromatographic logP of 3.9.
In the case of `Fc1ccc(Oc2cnc3c(Cl)cccc3c2)c(Cl)c1` [IIa.23, 8-chloro-3-(2-chloro-4-fluorophenoxy)quinoline], the chromatographic logP was 4.11.
Work on `Cc1nc2ccccc2cc1Oc1ccc(F)cc1Br` [IIa.13, 3-(2-bromo-4-fluorophenoxy)-2-methylquinoline] yielded a chromatographic logP of 3.35.
`Cc1nc2c(F)c(F)ccc2cc1Oc1cccc(OC(F)(F)F)c1Br` [IIa.24, 3-[2-bromo-3-(trifluoromethoxy)phenoxy]-7,8-difluoro-2-methylquinoline] gave a chromatographic logP of 4.9.
`C[Si](C)(c1ccc(Cl)cc1)c1ccccc1CBr` [XIa.06, [2-(bromomethyl)phenyl](4-chlorophenyl)dimethylsilane] showed a chromatographic logP of 5.94.
Molecule `Cc1nc2c(F)c(F)ccc2cc1Oc1cccc(F)c1Br` [IIa.16, 3-(2-bromo-3-fluorophenoxy)-7,8-difluoro-2-methylquinoline] has a chromatographic logP of 4.29.
`Cc1nc2c(F)c(F)ccc2cc1Oc1cc(F)ccc1Br` [IIa.10, 3-(2-bromo-5-fluorophenoxy)-7,8-difluoro-2-methylquinoline] gave a chromatographic logP of 4.34.
With `[O-][n+]1cc(Oc2cccc(F)c2)cc2ccccc21` [VIIa.06, 3-(3-fluorophenoxy)quinoline 1-oxide] the chromatographic logP was 2.14.
With `Cc1nc2c(F)c(F)ccc2cc1Oc1ccc(F)cc1Br` [IIa.12, 3-(2-bromo-4-fluorophenoxy)-7,8-difluoro-2-methylquinoline] the chromatographic logP was 4.25.

Same assay, conditions: reversed-phase HPLC column (C18), Method B: 40° C., 0.001 molar ammonium acetate solution in water and acetonitrile
`Brc1c(COC2CCCCO2)cccc1Nc1cnc2ccccc2c1` (stereo not drawn) [II.04A, N-{2-bromo-3-[(tetrahydro-2H-pyran-2-yloxy)methyl]phenyl}quinolin-3-amine] showed a chromatographic logP of 4.13.

Same assay, conditions: reversed-phase HPLC column (C18), logP Method A
`Fc1cccc(Oc2cnc3ccccc3c2)c1` [VIIa.05, 3-(3-fluorophenoxy)quinoline] gave a chromatographic logP of 3.21.
For `CC[Si](CC)(CC)c1c(O)cccc1F` [IX.02A], the chromatographic logP was 4.69.
For `O=Cc1cccc(Oc2cnc3ccccc3c2)c1I` [II.01A], the chromatographic logP was 3.29.
`C[Si](C)(c1ccc(Cl)cc1)c1ccccc1CBr` [XIa.06, [2-(bromomethyl)phenyl](4-chlorophenyl)dimethylsilane] gave a chromatographic logP of 5.94.
For `OC(c1cccc(F)c1)c1cnc2ccccc2c1` (stereo not drawn) [VII.01A], the chromatographic logP was 1.54.
With `Fc1cccc(Nc2cc3ccccc3nc2C(F)F)c1` [VII.03A] the chromatographic logP was 3.68.
In the case of `[O-][n+]1cc(Oc2cccc(F)c2)cc2ccccc21` [VIIa.06, 3-(3-fluorophenoxy)quinoline 1-oxide], the chromatographic logP was 2.14.

Same assay, conditions: reversed-phase HPLC column (C18), logP Method B
`Brc1c(COC2CCCCO2)cccc1Nc1cnc2ccccc2c1` (stereo not drawn) [II.04A, N-{2-bromo-3-[(tetrahydro-2H-pyran-2-yloxy)methyl]phenyl}quinolin-3-amine] gave a chromatographic logP of 4.13.
